Values joined by “and” are separate entries in the source; they are usually repeats but may differ in a detail not shown here. Identical values can stand only once.
Columns and labels:
CAMK1a = target: T1, CAMK1a (Homo sapiens, UniProt Q14012); assay: HotSpot kinase assay; format: biochemical; settings: read-out: % Enzyme Activity (relative to DMSO controls)
T1 construct: purchased Reaction Biology Corporation

TESK1 = target: T2, TESK1 (Homo sapiens, UniProt Q15569); assay: HotSpot kinase assay; format: biochemical; settings: read-out: % Enzyme Activity (relative to DMSO controls)
T2 construct: purchased Reaction Biology Corporation

ERK7/MAPK15 = target: T3, ERK7/MAPK15 (Homo sapiens, UniProt Q8TD08); assay: HotSpot kinase assay; format: biochemical; settings: read-out: % Enzyme Activity (relative to DMSO controls)
T3 construct: purchased Reaction Biology Corporation

RSK3 = target: T4, RSK3 (Homo sapiens, UniProt Q15349); assay: HotSpot kinase assay; format: biochemical; settings: read-out: % Enzyme Activity (relative to DMSO controls)
T4 construct: purchased Reaction Biology Corporation

TAK1 = target: T5, TAK1 (Homo sapiens, UniProt O43318); assay: HotSpot kinase assay; format: biochemical; settings: read-out: % Enzyme Activity (relative to DMSO controls)
T5 construct: purchased Reaction Biology Corporation

PHKg2 = target: T6, PHKg2 (Homo sapiens, UniProt P15735); assay: HotSpot kinase assay; format: biochemical; settings: read-out: % Enzyme Activity (relative to DMSO controls)
T6 construct: purchased Reaction Biology Corporation

LOK/STK10 = target: T7, LOK/STK10 (Homo sapiens, UniProt O94804); assay: HotSpot kinase assay; format: biochemical; settings: 10µM; read-out: % Enzyme Activity (relative to DMSO controls)
T7 construct: purchased Reaction Biology Corporation
Experimental: (§1) Kinase activity were performed by Reaction Biology Corporation using the “HotSpot” assay platform modified from the published procedure.

AMPK(A2/B2/G1) = target: T8, AMPK(A2/B2/G1) (Homo sapiens, UniProt P54646); assay: HotSpot kinase assay; format: biochemical; settings: 10µM; read-out: % Enzyme Activity (relative to DMSO controls)
T8 construct: purchased Reaction Biology Corporation
Experimental: as §1

WEE1 = target: T9, WEE1 (Homo sapiens, UniProt P30291); assay: HotSpot kinase assay; format: biochemical; settings: read-out: % Enzyme Activity (relative to DMSO controls)
T9 construct: purchased Reaction Biology Corporation
Experimental: as §1

ARAF = target: T10, ARAF (Homo sapiens, UniProt P10398); assay: HotSpot kinase assay; format: biochemical; settings: 10µM; read-out: % Enzyme Activity (relative to DMSO controls)
T10 construct: purchased Reaction Biology Corporation
Experimental: as §1

PDK2/PDHK2 = target: T11, PDK2/PDHK2 (Homo sapiens, UniProt Q15119); assay: HotSpot kinase assay; format: biochemical; settings: 10µM; read-out: % Enzyme Activity (relative to DMSO controls)
T11 construct: purchased Reaction Biology Corporation
Experimental: as §1

AMPK(A1/B1/G1) = target: T12, AMPK(A1/B1/G1) (Homo sapiens, UniProt Q13131); assay: HotSpot kinase assay; format: biochemical; settings: 10µM; read-out: % Enzyme Activity (relative to DMSO controls)
T12 construct: purchased Reaction Biology Corporation
Experimental: as §1

TTBK2 = target: T13, TTBK2 (Homo sapiens, UniProt Q6IQ55); assay: HotSpot kinase assay; format: biochemical; settings: 10µM; read-out: % Enzyme Activity (relative to DMSO controls)
T13 construct: purchased Reaction Biology Corporation
Experimental: as §1

AMPK(A2/B1/G1) = target: T14, AMPK(A2/B1/G1) (Homo sapiens, UniProt P54646); assay: HotSpot kinase assay; format: biochemical; settings: 10µM; read-out: % Enzyme Activity (relative to DMSO controls)
T14 construct: purchased Reaction Biology Corporation
Experimental: as §1

TTBK1 = target: T15, TTBK1 (Homo sapiens, UniProt Q5TCY1); assay: HotSpot kinase assay; format: biochemical; settings: 10µM; read-out: % Enzyme Activity (relative to DMSO controls)
T15 construct: purchased Reaction Biology Corporation
Experimental: as §1

NEK7 = target: T16, NEK7 (Homo sapiens, UniProt Q8TDX7); assay: HotSpot kinase assay; format: biochemical; settings: 10µM; read-out: % Enzyme Activity (relative to DMSO controls)
T16 construct: purchased Reaction Biology Corporation
Experimental: as §1

EIF2AK1 = target: T17, EIF2AK1 (Homo sapiens, UniProt Q9BQI3); assay: HotSpot kinase assay; format: biochemical; settings: 10µM; read-out: % Enzyme Activity (relative to DMSO controls)
T17 construct: purchased Reaction Biology Corporation
Experimental: as §1

TGFBR2 = target: T18, TGFBR2 (Homo sapiens, UniProt P37173); assay: HotSpot kinase assay; format: biochemical; settings: 10µM; read-out: % Enzyme Activity (relative to DMSO controls)
T18 construct: purchased Reaction Biology Corporation
Experimental: as §1

PDK1/PDHK1 = target: T19, PDK1/PDHK1 (Homo sapiens, UniProt Q15118); assay: HotSpot kinase assay; format: biochemical; settings: 10µM; read-out: % Enzyme Activity (relative to DMSO controls)
T19 construct: purchased Reaction Biology Corporation
Experimental: as §1

NIM1 = target: T20, NIM1 (Homo sapiens, UniProt Q8IY84); assay: HotSpot kinase assay; format: biochemical; settings: read-out: % Enzyme Activity (relative to DMSO controls)
T20 construct: purchased Reaction Biology Corporation

c-MER = target: T21, c-MER (Homo sapiens, UniProt Q12866); assay: HotSpot kinase assay; format: biochemical; settings: read-out: % Enzyme Activity (relative to DMSO controls)
T21 construct: purchased Reaction Biology Corporation

BRK = target: T22, BRK (Homo sapiens, UniProt Q13882); assay: HotSpot kinase assay; format: biochemical; settings: read-out: % Enzyme Activity (relative to DMSO controls)
T22 construct: purchased Reaction Biology Corporation

IRAK1 = target: T23, IRAK1 (Homo sapiens, UniProt P51617); assay: HotSpot kinase assay; format: biochemical; settings: read-out: % Enzyme Activity (relative to DMSO controls)
T23 construct: purchased Reaction Biology Corporation

HSV-1 K26GFP = assay: capsid entry, confocal imaging, HaCat cells; format: cell-based; settings: 1 h post-temperature shift; CIMSS 10 μM, antibody 2 μg/ml
Experimental: To quantify viral entry, cells were synchronously infected by allowing virus to bind to cells at 4°C for 4 h, washed, and then transferred to 37 °C. CIMSS or control DMSO was added at the time of temperature shift. At indicated times post-temperature shift, the cells were treated with a low pH buffer to inactivate virus that had not penetrated, washed, overlaid with medium containing methyl cellulose and viral plaques were counted at 48 h. Entry was also assessed by immunoblotting nuclear extracts for VP16. […] Nuclear extracts were prepared after 1 h and analyzed by western blot with antibodies targeting VP16, histone H1 and golgin-97[5]. The non-nuclear fraction was also probed for golgin-97 as a positive control. […] After 1 or 4 h of incubation, the cells were fixed. Plasma membranes were stained using Image -IT^TM LIVE Plasma Membrane kit and nuclei were stained with DAPI (Thermo Fisher Scientific, Cat 134406). The percentage of GFP + nuclei was determined by counting ~200 cells over 3–4 fields. Images were obtained with Leica SP8 microscope (objective 63 × 1.4); xz images were captured with optical slice 0.6 µm, 25–30 slices per image.

TSSK2 = target: T24, TSSK2 (Homo sapiens, UniProt Q96PF2); assay: HotSpot kinase assay; format: biochemical; settings: read-out: % Enzyme Activity (relative to DMSO controls)
T24 construct: purchased Reaction Biology Corporation

CAMKK2 = target: T25, CAMKK2 (Homo sapiens, UniProt Q96RR4); assay: HotSpot kinase assay; format: biochemical; settings: read-out: % Enzyme Activity (relative to DMSO controls)
T25 construct: purchased Reaction Biology Corporation

ULK3 = target: T26, ULK3 (Homo sapiens, UniProt Q6PHR2); assay: HotSpot kinase assay; format: biochemical; settings: read-out: % Enzyme Activity (relative to DMSO controls)
T26 construct: purchased Reaction Biology Corporation

CDK2/CYCLIN E = target: T27, CDK2/CYCLIN E (Homo sapiens, UniProt P24941); assay: HotSpot kinase assay; format: biochemical; settings: read-out: % Enzyme Activity (relative to DMSO controls)
T27 construct: purchased Reaction Biology Corporation

CAMK1d = target: T28, CAMK1d (Homo sapiens, UniProt Q8IU85); assay: HotSpot kinase assay; format: biochemical; settings: read-out: % Enzyme Activity (relative to DMSO controls)
T28 construct: purchased Reaction Biology Corporation

EIF2AK2 = target: T29, EIF2AK2 (Homo sapiens, UniProt P19525); assay: HotSpot kinase assay; format: biochemical; settings: read-out: % Enzyme Activity (relative to DMSO controls)
T29 construct: purchased Reaction Biology Corporation

[1] = tested on: intracellular Ca2+ response to HSV-2(G); assay: calcium kinetic measurements (Fura-2), HaCat cells; format: cell-based, human; settings: for mean calcium released: CIMSS without virus (Fig 4b source data)
Experimental: The cells were then transferred to SpectraMaxMF^e temperature-regulated chamber at 37 °C (Molecular Devices Ca) without washing; photometric data for intracellular Ca^2+ concentration [Ca^2+] were generated by exciting cells at 340 and 380 nm and measuring emission at 510 nm every minute for one hour using SoftMaxPro. 5.4 software (Molecular Devices). An intracellular calibration was performed with each experiment by determining the fluorescence ratio (340:380) in the presence of Ca-free 10 mM K2EGTA buffer (Rmin) and 10 mM CaEGTA buffer containing 10 µM ionomycin (Rmax) (C-3008, Calcium Calibration Buffer Kit #1, Invitrogen Molecular Probes).

T17 sequence (Q9BQI3 whole entry): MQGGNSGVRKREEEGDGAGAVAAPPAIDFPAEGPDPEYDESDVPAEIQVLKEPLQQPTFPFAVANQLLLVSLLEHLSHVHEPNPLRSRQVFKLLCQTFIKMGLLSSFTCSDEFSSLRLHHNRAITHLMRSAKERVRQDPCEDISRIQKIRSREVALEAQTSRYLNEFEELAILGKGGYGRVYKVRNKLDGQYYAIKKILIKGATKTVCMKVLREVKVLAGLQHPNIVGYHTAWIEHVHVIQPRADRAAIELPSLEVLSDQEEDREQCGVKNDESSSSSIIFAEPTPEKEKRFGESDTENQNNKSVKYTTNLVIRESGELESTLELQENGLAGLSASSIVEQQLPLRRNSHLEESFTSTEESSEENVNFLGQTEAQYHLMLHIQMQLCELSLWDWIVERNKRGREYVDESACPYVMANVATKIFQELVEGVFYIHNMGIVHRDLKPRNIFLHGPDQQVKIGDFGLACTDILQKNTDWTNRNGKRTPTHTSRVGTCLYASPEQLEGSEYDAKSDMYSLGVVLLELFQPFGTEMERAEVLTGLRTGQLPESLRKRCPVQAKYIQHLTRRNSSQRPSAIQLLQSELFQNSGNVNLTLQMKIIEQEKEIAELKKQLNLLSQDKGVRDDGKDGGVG
T24 sequence (Q96PF2 whole entry): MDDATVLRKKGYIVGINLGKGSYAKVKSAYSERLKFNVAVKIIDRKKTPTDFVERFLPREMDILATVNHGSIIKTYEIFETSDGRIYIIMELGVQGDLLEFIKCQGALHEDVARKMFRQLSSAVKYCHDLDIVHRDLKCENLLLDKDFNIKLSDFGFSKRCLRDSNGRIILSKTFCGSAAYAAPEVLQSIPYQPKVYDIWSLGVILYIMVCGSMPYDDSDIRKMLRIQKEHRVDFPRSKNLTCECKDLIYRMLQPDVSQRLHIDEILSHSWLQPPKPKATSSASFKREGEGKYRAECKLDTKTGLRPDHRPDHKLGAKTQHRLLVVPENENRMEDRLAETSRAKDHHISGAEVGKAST
T7 sequence (O94804 whole entry): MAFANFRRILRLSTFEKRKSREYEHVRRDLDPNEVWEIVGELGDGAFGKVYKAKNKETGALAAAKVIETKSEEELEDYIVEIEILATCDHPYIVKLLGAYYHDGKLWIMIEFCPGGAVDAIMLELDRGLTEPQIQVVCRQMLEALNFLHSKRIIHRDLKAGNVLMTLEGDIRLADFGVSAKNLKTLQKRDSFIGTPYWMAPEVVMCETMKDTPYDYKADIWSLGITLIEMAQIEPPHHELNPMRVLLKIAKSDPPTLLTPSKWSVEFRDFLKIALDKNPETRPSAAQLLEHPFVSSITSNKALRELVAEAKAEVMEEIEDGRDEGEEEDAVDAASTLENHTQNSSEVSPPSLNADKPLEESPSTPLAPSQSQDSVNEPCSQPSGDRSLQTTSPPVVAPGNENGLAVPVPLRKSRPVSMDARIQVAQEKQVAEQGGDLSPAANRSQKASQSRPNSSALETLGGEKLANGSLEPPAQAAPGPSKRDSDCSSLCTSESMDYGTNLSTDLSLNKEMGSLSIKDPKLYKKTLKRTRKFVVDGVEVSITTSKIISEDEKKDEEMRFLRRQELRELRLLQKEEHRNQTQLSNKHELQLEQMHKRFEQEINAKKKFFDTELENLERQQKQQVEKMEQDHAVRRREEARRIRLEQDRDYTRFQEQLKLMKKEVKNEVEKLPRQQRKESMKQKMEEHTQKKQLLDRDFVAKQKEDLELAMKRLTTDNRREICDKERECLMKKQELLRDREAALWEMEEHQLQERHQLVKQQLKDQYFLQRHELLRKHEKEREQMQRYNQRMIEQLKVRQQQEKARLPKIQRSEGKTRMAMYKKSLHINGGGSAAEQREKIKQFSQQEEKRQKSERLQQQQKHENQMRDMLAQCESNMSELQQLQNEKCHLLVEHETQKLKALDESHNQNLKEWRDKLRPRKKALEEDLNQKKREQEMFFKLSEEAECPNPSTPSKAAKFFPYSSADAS
T22 sequence (Q13882 whole entry): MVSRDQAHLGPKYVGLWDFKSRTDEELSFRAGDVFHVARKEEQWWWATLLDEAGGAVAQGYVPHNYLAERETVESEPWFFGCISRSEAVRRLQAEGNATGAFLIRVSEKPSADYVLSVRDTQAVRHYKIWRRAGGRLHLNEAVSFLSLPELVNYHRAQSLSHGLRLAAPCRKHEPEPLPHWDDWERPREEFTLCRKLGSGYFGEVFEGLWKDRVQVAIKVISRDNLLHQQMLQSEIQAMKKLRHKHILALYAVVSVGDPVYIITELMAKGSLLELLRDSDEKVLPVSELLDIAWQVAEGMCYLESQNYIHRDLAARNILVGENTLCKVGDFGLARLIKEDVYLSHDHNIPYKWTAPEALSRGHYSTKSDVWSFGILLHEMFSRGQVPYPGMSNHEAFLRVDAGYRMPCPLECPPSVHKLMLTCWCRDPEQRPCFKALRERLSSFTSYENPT
T3 sequence (Q8TD08 whole entry): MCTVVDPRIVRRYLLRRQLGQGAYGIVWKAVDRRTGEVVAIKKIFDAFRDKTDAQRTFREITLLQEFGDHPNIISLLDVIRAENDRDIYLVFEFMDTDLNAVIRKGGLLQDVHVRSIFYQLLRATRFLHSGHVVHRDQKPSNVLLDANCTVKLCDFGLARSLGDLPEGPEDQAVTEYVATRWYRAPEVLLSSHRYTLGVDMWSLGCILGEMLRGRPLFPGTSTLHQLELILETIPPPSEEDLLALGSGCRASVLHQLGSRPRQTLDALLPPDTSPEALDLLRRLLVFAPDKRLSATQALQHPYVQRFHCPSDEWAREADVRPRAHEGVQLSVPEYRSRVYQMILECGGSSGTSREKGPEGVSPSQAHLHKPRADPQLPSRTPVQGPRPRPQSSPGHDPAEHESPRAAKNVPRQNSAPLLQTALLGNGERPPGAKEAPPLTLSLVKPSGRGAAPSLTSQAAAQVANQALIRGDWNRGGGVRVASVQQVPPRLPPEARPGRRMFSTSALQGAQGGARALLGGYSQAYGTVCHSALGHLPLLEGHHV
T8 sequence (P54646 whole entry): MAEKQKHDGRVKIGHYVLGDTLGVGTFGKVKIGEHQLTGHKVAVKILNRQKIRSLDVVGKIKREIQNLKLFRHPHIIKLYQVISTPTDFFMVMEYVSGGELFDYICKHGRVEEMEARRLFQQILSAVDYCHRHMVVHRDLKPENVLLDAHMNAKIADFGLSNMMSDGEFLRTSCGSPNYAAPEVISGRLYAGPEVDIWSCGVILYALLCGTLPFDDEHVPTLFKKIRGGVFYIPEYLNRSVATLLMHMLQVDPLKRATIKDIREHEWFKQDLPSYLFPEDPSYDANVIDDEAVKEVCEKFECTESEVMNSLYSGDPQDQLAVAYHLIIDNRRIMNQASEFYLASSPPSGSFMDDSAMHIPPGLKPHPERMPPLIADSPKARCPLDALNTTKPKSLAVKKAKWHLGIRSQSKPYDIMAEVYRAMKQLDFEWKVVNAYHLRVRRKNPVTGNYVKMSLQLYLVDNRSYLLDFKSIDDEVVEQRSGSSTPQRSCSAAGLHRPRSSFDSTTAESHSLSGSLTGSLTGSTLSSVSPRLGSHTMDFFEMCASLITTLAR
T8 sequence (O43741 whole entry partner): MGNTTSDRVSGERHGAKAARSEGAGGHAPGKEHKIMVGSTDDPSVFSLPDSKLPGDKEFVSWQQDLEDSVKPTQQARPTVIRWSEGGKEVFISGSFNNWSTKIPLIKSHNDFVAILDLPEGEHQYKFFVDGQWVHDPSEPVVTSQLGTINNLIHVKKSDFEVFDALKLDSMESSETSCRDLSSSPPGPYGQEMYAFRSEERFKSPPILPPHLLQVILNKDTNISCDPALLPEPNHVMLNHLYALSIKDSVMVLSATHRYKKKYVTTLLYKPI
T8 sequence (P54619 whole entry partner): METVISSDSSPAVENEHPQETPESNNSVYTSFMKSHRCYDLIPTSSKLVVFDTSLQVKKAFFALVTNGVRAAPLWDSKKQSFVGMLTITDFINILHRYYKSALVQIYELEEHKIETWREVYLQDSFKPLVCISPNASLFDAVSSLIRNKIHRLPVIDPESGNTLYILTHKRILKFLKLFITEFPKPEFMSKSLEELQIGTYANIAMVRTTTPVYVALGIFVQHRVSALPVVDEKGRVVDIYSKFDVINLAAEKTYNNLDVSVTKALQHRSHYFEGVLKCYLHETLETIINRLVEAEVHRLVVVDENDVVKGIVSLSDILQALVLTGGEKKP
T14 sequence (P54646 whole entry): as the sequence (P54646 whole entry) above
T14 sequence (Q9Y478 whole entry partner): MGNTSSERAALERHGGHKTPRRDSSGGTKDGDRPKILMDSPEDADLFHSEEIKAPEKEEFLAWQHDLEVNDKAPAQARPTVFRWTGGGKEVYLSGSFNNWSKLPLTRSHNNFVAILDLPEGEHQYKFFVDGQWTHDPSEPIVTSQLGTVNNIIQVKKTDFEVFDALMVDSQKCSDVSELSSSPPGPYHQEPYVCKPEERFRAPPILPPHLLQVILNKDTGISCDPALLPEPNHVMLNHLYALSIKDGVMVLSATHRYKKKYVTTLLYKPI
T14 sequence (P54619 whole entry partner): as the sequence (P54619 whole entry partner) above
T28 sequence (Q8IU85 whole entry): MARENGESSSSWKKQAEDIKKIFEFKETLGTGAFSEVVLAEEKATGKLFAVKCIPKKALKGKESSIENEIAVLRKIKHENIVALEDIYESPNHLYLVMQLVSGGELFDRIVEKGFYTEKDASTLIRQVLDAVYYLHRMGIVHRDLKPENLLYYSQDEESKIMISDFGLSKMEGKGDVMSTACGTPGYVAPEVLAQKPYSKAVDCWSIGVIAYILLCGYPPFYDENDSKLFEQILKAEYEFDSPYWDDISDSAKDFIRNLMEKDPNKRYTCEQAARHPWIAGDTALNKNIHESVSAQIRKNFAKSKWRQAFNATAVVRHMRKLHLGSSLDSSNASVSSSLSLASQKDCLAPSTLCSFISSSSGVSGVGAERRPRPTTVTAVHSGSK

Compound: CO[C@@H]1[C@H](N(C)C(=O)CCC(=O)NCc2cn(CCCS(=O)(=O)O)nn2)C[C@H]2O[C@]1(C)n1c3ccccc3c3c4c(c5c6ccccc6n2c5c31)C(=O)NC4 [CIMSS]
- remaining activity at 10 µM (CAMK1a): 28.7%
- remaining activity at 10 µM (TESK1): 83%
- remaining activity at 10 µM (ERK7/MAPK15): 27.9%
- remaining activity at 10 µM (RSK3): 3.38%
- remaining activity at 10 µM (TAK1): 7.2%
- remaining activity at 10 µM (PHKg2): 18.4%
- remaining activity at 10 µM (LOK/STK10): 2.86%
- remaining activity at 10 µM (AMPK(A2/B2/G1)): 0.34%
- remaining activity at 10 µM (WEE1): 44.2%
- remaining activity at 10 µM (ARAF): 154%
- remaining activity at 10 µM (PDK2/PDHK2): 95.5%
- remaining activity at 10 µM (AMPK(A1/B1/G1)): 1.14%
- remaining activity at 10 µM (TTBK2): 95.1%
- remaining activity at 10 µM (AMPK(A2/B1/G1)): 0.76%
- remaining activity at 10 µM (TTBK1): 67.7%
- remaining activity at 10 µM (NEK7): 88.5%
- remaining activity at 10 µM (EIF2AK1): 82.5%
- remaining activity at 10 µM (TGFBR2): 111%
- remaining activity at 10 µM (PDK1/PDHK1): 97.2%
- remaining activity at 10 µM (NIM1): 46.6%
- remaining activity at 10 µM (c-MER): 2.17%
- remaining activity at 10 µM (BRK): 25.5%
- remaining activity at 10 µM (IRAK1): 3.57%
- percentage of GFP + cells (HSV-1 K26GFP): significantly decreased
- remaining activity at 10 µM (TSSK2): 21.2%
- remaining activity at 10 µM (CAMKK2): 1.86%
- remaining activity at 10 µM (ULK3): 14.2%
- remaining activity at 10 µM (CDK2/CYCLIN E): 7.89%
- remaining activity at 10 µM (CAMK1d): 20.3%
- remaining activity at 10 µM (EIF2AK2): 9.89%
- extended Ca2+ release ([1]; 10 µM, first hour pi): significant reduction
- initial Ca2+ transient ([1]; 10 µM, first three minutes): did not block
- mean calcium released ([1]; 3 minutes): 38.88 and 30.45 and 39.3074 and 44.7233
- mean calcium released ([1]; 1 hour): 90.67 and 95.94 and 99.48 and 102.73
